Measurements taken from ChEMBL document CHEMBL5136985, “Natural and synthetic β-carboline as a privileged antifungal scaﬀolds” (Eur J Med Chem, 2022).
Values after ≈ are worked out from the molar mass of the structure shown.

Assays:
Fusarium solani = assay: Antifungal activity against Fusarium solani; type: functional, organism-based
Alternaria alternata = assay: Antifungal activity against Alternaria alternata; type: functional
Cytospora mali = assay: Antifungal activity against Valsa mali; type: functional
[1] = test system: Colletotrichum gloeosporioides; assay: Antifungal activity against Colletotrichum gloeosporioides; type: functional
Alternaria brassicae = assay: Antifungal activity against Alternaria brassicae; type: functional
Aspergillus niger = assay: Antifungal activity against Aspergillus niger assessed as inhibition of growth rate at 100 ug/ml by disc diffusion method relative to control; type: functional
Bipolaris oryzae = assay: Antifungal activity against Helminthosporium oryzae assessed as inhibition of growth rate at 100 ug/ml by disc diffusion method relative to control; type: functional
Sclerotinia sclerotiorum = assay: Antifungal activity against Sclerotinia sclerotiorum; type: functional, organism-based
Sclerotinia [2] = assay: Antifungal activity against rape Sclerotinia rot at 50 ug/ml relative to control; type: functional; conditions: for inhibition at 50 µg/mL: Sclerotinia
Rhizoctonia solani = assay: Antifungal activity against Rhizoctonia solani; type: functional, organism-based
Curvularia lunata = assay: Antifungal activity against Curvularia lunata; type: functional, organism-based
[3] = test system: Trichophyton interdigitale; assay: Antifungal activity against Trichophyton interdigitale; type: functional
Gaeumannomyces graminis = assay: Antifungal activity against Gaeumannomyces graminis; type: functional, organism-based
Sclerotinia [4] = assay: Antifungal activity against sunflower Sclerotinia rot at 50 ug/ml relative to control; type: functional; conditions: dose 50 µg/ml
Metarhizium anisopliae = assay: Antifungal activity against Metarhizium anisopliae assessed as reduction of growth rate relative to control; type: functional; design: scale not given: the % may be the effect or the level left
Bipolaris maydis = assay: Antifungal activity against Bipolaris maydis relative to control; type: functional; design: concentration or dose not given beside the values
Alternaria solani = assay: Antifungal activity against Alternaria solani relative to control; type: functional; design: concentration or dose not given beside the values
Phytophthora litchii = assay: Antifungal activity against Phytophthora litchii assessed as inhibition of growth rate at 100 mg/L relative to control; type: functional
Candida albicans [5] = assay: Antifungal activity against Candida albicans; type: functional, organism-based
Candida parapsilosis = assay: Antifungal activity against Candida parapsilosis; type: functional; conditions: Lodderomyces parapsilosis
Candida tropicalis = assay: Antifungal activity against Candida tropicalis; type: functional
Nakaseomyces glabratus = assay: Antifungal activity against Candida glabrata; type: functional
Kluyveromyces marxianus = assay: Antifungal activity against Candida kefyr; type: functional
Cryptococcus neoformans = assay: Antifungal activity against Cryptococcus neoformans; type: functional
Pichia kudriavzevii = assay: Antifungal activity against Candida krusei; type: functional
Candida albicans [6] = assay: Antifungal activity against Candida albicans incubated for 72 hrs; type: functional

## Cc1ccc([N+]2=Cc3c(c4ccccc4n3C)CC2)cc1
Fusarium solani
  EC50: 2470 nM

## O=C1[C@@H]2Cc3c([nH]c4ccccc34)C(c3ccccc3)N2C(=O)[C@@H]2CCCN12 (some centres not stated)
Alternaria alternata
  MIC: 12.5 µg/mL (≈ 33.7 µM)
Cytospora mali
  MIC: 12.5 µg/mL (≈ 33.7 µM)
[1]
  MIC: 12.5 µg/mL (≈ 33.7 µM)
Alternaria brassicae
  MIC: 12.5 µg/mL (≈ 33.7 µM)

## COc1cc(C2NCCc3c2[nH]c2ccccc32)ccc1O (configuration not stated)
Aspergillus niger
  inhibition at 100 µg/mL: 21.6%
Bipolaris oryzae
  inhibition at 100 µg/mL: 22.4%

## CC(C)(C)[C@@H]1COC(c2nccc3c2[nH]c2ccccc23)=N1
Sclerotinia sclerotiorum
  EC50: 13000 nM

## CC(C)C1c2[nH]c3ccccc3c2C[C@H]2C(=O)N3CCC[C@H]3C(=O)N12 (some centres not stated)
Alternaria alternata
  MIC: 12.5 µg/mL (≈ 37 µM)
Cytospora mali
  MIC: 12.5 µg/mL (≈ 37 µM)
[1]
  MIC: 12.5 µg/mL (≈ 37 µM)
Alternaria brassicae
  MIC: 12.5 µg/mL (≈ 37 µM)

## CCCCn1c2ccccc2c2ccnc(-c3nc4ccccc4[nH]3)c21
Sclerotinia [2]; dose 50 µg/ml
  Activity: 80.46%

## c1ccc(Cn2c3ccccc3c3ccnc(-c4nc5ccccc5[nH]4)c32)cc1
Sclerotinia [2]
  inhibition at 50 µg/mL: 88.5%

## c1ccc(-c2nc(-c3nnc(C4CC4)o3)cc3c2[nH]c2ccccc23)cc1
Rhizoctonia solani
  EC50: 4.2 µg/mL (≈ 11.9 µM)

## COC1=CC(=O)C[C@@H](C)[C@]12Oc1c(Cl)c(OC)cc(OC)c1C2=O [GRISEOFULVIN]
Aspergillus niger
  inhibition at 100 µg/mL: 20.3%
Bipolaris oryzae
  inhibition at 100 µg/mL: 20.4%

## CCCCCn1c2ccccc2c2cc(C)ncc21
Curvularia lunata
  EC50: 13.8 µg/mL (≈ 54.7 µM)

## CCCCCc1nccc2c1[nH]c1ccccc12
[3]
  MIC: 50 µg/mL (≈ 210 µM)

## NC(=O)c1cc2c([nH]c3ccccc32)c(-c2ccccn2)n1
Gaeumannomyces graminis
  EC50: 2850 nM

## CO/C=C(/C(=O)OC)c1ccccc1Oc1cc(Oc2ccccc2C#N)ncn1 [AZOXYSTROBIN]
Sclerotinia [2]
  inhibition at 50 µg/mL: 88.5%
Sclerotinia [4]
  Activity: 88.07%

## c1ccc2c(c1)[nH]c1cnccc12 [NORHARMANE]
[3]
  MIC: 100 µg/mL (≈ 595 µM)
Metarhizium anisopliae
  Activity: 11.9%

## Cc1nccc2c1[nH]c1ccc([N+](=O)[O-])cc12
Bipolaris maydis
  Activity: 31.6%
Alternaria solani
  Activity: 33.3%

## COc1ccc(C2c3[nH]c4ccccc4c3C[C@H]3C(=O)N4CCC[C@H]4C(=O)N23)cc1 (some centres not stated)
Alternaria alternata
  MIC: 12.5 µg/mL (≈ 31.1 µM)
Cytospora mali
  MIC: 12.5 µg/mL (≈ 31.1 µM)
[1]
  MIC: 6.25 µg/mL (≈ 15.6 µM)
Alternaria brassicae
  MIC: 12.5 µg/mL (≈ 31.1 µM)

## Cn1c2c(c3ccccc31)CC[N+](c1ccc(F)cc1)=C2
Fusarium solani
  EC50: 2180 nM

## O=C(Nc1ccccn1)c1cc2c([nH]c3ccccc32)c(-c2ccccc2)n1
Phytophthora litchii
  inhibition at 100 µg/mL: 95.9%

## O=C1[C@@H]2Cc3c([nH]c4ccccc34)C(c3ccc([N+](=O)[O-])cc3)N2C(=O)[C@@H]2CCCN12 (some centres not stated)
Alternaria alternata
  MIC: 12.5 µg/mL (≈ 30 µM)
Cytospora mali
  MIC: 12.5 µg/mL (≈ 30 µM)
[1]
  MIC: 6.25 µg/mL (≈ 15 µM)
Alternaria brassicae
  MIC: 12.5 µg/mL (≈ 30 µM)

## Cc1cccc([N+]2=Cc3c(c4ccccc4n3C)CC2)c1
Fusarium solani
  EC50: 3030 nM

## CC[C@@H]1COC(c2nccc3c2[nH]c2ccccc23)=N1
Sclerotinia sclerotiorum
  EC50: 22400 nM

## c1ccc2c(c1)c1ccncc1n2-n1c2ccccc2c2ccncc21
Candida albicans [5]
  EC50: > 1 uM/ml

## COC(=O)c1cc2c([nH]c3ccccc32)c(C(=O)OC)n1
Gaeumannomyces graminis
  EC50: 1160 nM

## CCC(C)Cc1nccc2c1[nH]c1ccccc12 (configuration not stated)
[3]
  MIC: 50 µg/mL (≈ 210 µM)

## COc1cc(C2c3[nH]c4ccccc4c3C[C@H]3C(=O)N4CCC[C@H]4C(=O)N23)ccc1O (some centres not stated)
Alternaria alternata
  MIC: 12.5 µg/mL (≈ 29.9 µM)
Cytospora mali
  MIC: 6.25 µg/mL (≈ 15 µM)
[1]
  MIC: 12.5 µg/mL (≈ 29.9 µM)
Alternaria brassicae
  MIC: 6.25 µg/mL (≈ 15 µM)

## Cc1nccc2c3ccccc3n(Cc3cn(-c4ccncc4)nn3)c12
Sclerotinia [4]
  Activity: 84.47%

## COc1cc(-c2nc(NC(=O)Nc3ccc(C(F)(F)F)cc3)cc3c2[nH]c2ccccc23)cc(OC)c1OC
Rhizoctonia solani
  EC50: 281 µg/mL (≈ 524 µM)

## Cc1nccc2c3ccccc3n(Cc3cn(-c4cc(F)c(F)c(F)c4)nn3)c12
Sclerotinia [4]
  Activity: 85.98%

## OCC1=C[C@H](N[C@H]2C[C@H](CO)[C@@H](O[C@@H]3O[C@H](CO)[C@@H](O)[C@H](O)[C@H]3O)[C@H](O)[C@H]2O)[C@H](O)[C@@H](O)[C@@H]1O [VALIDAMYCIN]
Rhizoctonia solani
  EC50: 198 µg/mL (≈ 397 µM)

## Cc1cccc([N+]2=Cc3c(c4cc(C)ccc4n3C)CC2)c1
Fusarium solani
  EC50: 2670 nM

## CCCCCCCC[C@H]1N[C@H](C(=O)OC)Cc2c1[nH]c1ccccc21
Candida parapsilosis
  MIC: 14.8 µg/mL (≈ 43.2 µM)
Candida tropicalis
  MIC: 7.41 µg/mL (≈ 21.6 µM)
Nakaseomyces glabratus
  MIC: 3.67 µg/mL (≈ 10.7 µM)
Kluyveromyces marxianus
  MIC: 3.67 µg/mL (≈ 10.7 µM)
Candida albicans [5]; Candida albicans
  MIC: 14.8 µg/mL (≈ 43.2 µM)
Cryptococcus neoformans
  MIC: 7.41 µg/mL (≈ 21.6 µM)
Pichia kudriavzevii
  MIC: 7.41 µg/mL (≈ 21.6 µM)

## Cc1nccc2c3ccccc3n(Cc3cn(-c4ccccc4)nn3)c12
Sclerotinia [4]
  Activity: 85.04%

## Cc1cc2c3ccccc3n(C(C)C)c2cn1
Curvularia lunata
  EC50: 4.23 µg/mL (≈ 18.9 µM)

## O=C(Nc1ccccc1-c1ccc(Cl)cc1)c1cccnc1Cl [BOSCALID]
Sclerotinia sclerotiorum
  EC50: 900 nM

## Cc1ccc2c(c1)c1c(n2C)C=[N+](c2ccccc2C)CC1
Fusarium solani
  EC50: 3470 nM

## Cc1nccc2c1[nH]c1cc(O)ccc12
Bipolaris maydis
  Activity: 31.8%
Alternaria solani
  Activity: 26.3%

## O=C1[C@@H]2Cc3c([nH]c4ccccc34)C(c3ccc(O)cc3)N2C(=O)[C@@H]2CCCN12 (some centres not stated)
Alternaria alternata
  MIC: 12.5 µg/mL (≈ 32.3 µM)
Cytospora mali
  MIC: 12.5 µg/mL (≈ 32.3 µM)
[1]
  MIC: 12.5 µg/mL (≈ 32.3 µM)
Alternaria brassicae
  MIC: 6.25 µg/mL (≈ 16.1 µM)

## N#Cc1c(Cl)c(Cl)c(Cl)c(C#N)c1Cl [CHLOROTHALONIL]
Bipolaris maydis
  Activity: 91.3%
Alternaria solani
  Activity: 73.3%

## Cc1nccc2c3ccccc3n(Cc3cn(-c4ccc(C(F)(F)F)cc4)nn3)c12
Sclerotinia [4]
  Activity: 86.93%

## COc1ccc2c3c([nH]c2c1)C(C)=NCC3 [HARMALINE]
Candida albicans [6]
  MIC: 666 µg/mL (≈ 3110 µM)

## O=C(O)c1cc2c([nH]c3ccccc32)c(-c2ccc(Br)cc2)n1
Sclerotinia sclerotiorum
  EC50: 5380 nM
